Laboratory results taken from US20250161295A1, “EXATECAN FORMULATION” (Yale University, priority 2022, published 2025).
Where a name gives a salt, the structure may show the parent alone.

Experiments:
[1] = system: PDVC57 cells (SCC tumors); test: Single intratumoral injection of water-based exatecan mesylate formulation in mouse model of SCC (Example 3); format: in vivo, C57BL/6J mice
Description: Six-week old female C57BL/6J mice were used in this study.
PDVC57 cells were developed in, and obtained from, the laboratory of Dr. Allan Balmain (Quintanilla, et al., Carcinogenesis 1991, 12 (10), 1875-1881). Mice were anesthetized with avertin and their flanks shaved. The mice were then given an intradermal injection with of 5 million PDVC57 cells in suspension in 100 μL PBS. A 1 cc syringe fitted with a 27 g needle was used for the intradermal injection.
Seven days following tumor cell inoculation, the mice were given either a single intratumoral injection of 10 mg/mL exatecan mesylate in ultrapure distilled water (Invitrogen, Catalog #10977-015) or a vehicle injection using a BD insulin syringe (30-gauge×8 mm needle; #328468). The vehicle was invitrogen UltraPure Distilled Water #10977-015. The treatment volume was 0.02 mL.
Mice were sedated. Calipers were used to measure tumor diameter. Tumor volume was calculated from micrometer measurements using the following formula: […]
When tumors reached the endpoint, i.e., tumor volume of 1 cm^3, mice were euthanized by isoflurane inhalation and tumors dissected away from subcutaneous tissue. Isolated tumors were bisected along the longest axis, fixed in 10% neutral buffered fonnalin and submitted to Yale Research Pathology for embedding, sectioning, and H&E staining. Resulting slides were scanned using a Zeiss AxioObserver Z1 with TissueGnostics TissueFAXS software. Images were analyzed using Fiji software.
In a first experiment, 20 mice with tumors ranging in size from 45-85 mm^3 were examined. The group size was 10. Ten of the mice were given a single injection of a water-based formulation containing exatecan mesylate (10 mg/mL), while the other 10 mice received a vehicle injection of ultrapure DI water and served as the control group. For each group (experimental group or control), half of the mice were harvested 16 days post-treatment for histological assessment, the other half were harvested 32 days post-treatment if they had discernible tumors or monitored until day 66 if no palpable tumors were observed.

[2] = system: SCC tumors (PDVC57 cells); test: Intratumoral injection of exatecan in PDVC57 SCC tumors (Example 1, Experiments 1 and 2): tumor outcome; format: in vivo, C57BL/6J mice; conditions: EXA 0.2 mg single intratumoral injection; of 6 mice harvested (4 not harvested)
[3] = Dissolution of exatecan mesylate in sterile dH2O (stock preparation); format: physicochemical
Description: (§1) Exatecan mesylate (“EXA”) (DX895If; MedChemExpress #HY-13631A) was dissolved in sterile dH20 (Invitrogen 10977-023) to prepare a 5 mg/mL or a 10 mg/mL stock solution. […] The concentration was confirmed by HPLC and further dilutions prepared as needed in sterile dH2O.

[4] = system: PDVC57 cells (SCC tumors); test: Titrated doses of a single injection of water-based exatecan mesylate formulation on tumor size (Example 5); format: in vivo, C57BL/6J mice
Description: In a third experiment, 15 mice (i.e., five groups each containing three mice) with tumors ranging in size 59-80 mm^3, calculated as described above, were examined. PDVC57 cells were injected into 6-week-old female C57BL/6J mice. Treatment was administered seven days after tumor cell inoculation. Intratumoral injection performed using BD insulin syringe (30-gauge×8 mm needle; #328468). Mice were randomly assigned to one of five groups and were given a single intratumoral injection of either the vehicle (UltraPure Distilled Water, Invitrogen, #10977-015) or one of the following concentrations of the water-based formulation containing exatecan mesylate: 10 mg/mL, 5 mg/mL, 2.5 mg/mL or 1.25 mg/mL for a total treatment volume of 0.02 mL. All the mice were harvested 14 days post treatment for histological assessments.

ID8-Luc tumor cells = test: BNP-111 in vivo efficacy in ID8 ovarian cancer model (IVIS tumor burden); design: species or system C57Bl/6 mice; conditions: 2.5 mpk i.p. once weekly x4; day 56
Description: Luciferase expressing ID8-Luc tumor cells were washed twice in sterile PBS, resuspended in sterile PBS and a 1 ml 27 G syringe used to inject 1 million cells intraperitoneally (i.p.) into syngeneic female C57Bl/6 mice.

[5] = Intratumoral injection of exatecan (Example 1): toxicity
Description: (§2) SCC tumors were established by subcutaneous injection of 5 million PDVC57 cells into the right flank of syngeneic C57BL/6J mice. Seven days later, when tumors ranged from 4.5-5.5 mm in diameter, mice were evenly distributed among the treatment groups (N=5-10 mice/group, see below) and received intratumoral injections of vehicle (dH2O) or exatecan.
(§3) A 0.5-mL 31 G syringe (BD Insulin Syringe #328468) was used to deliver 0.1 mg or 0.2 mg exatecan in a 20-microliter volume, or 0.4 mg in a 40-microliter volume (because of solubility limitations). Control groups received an equal volume of sterile dH2O. The needle was placed into the tumor and the appropriate volume was slowly injected (approximately over 5 sec). The needle was held in place for 10 seconds after the injection was complete, then slowly removed while maintaining finger pressure on the injection site.

[6] = pH-dependent exatecan mesylate solubility in phosphate buffers (precipitate rating); format: physicochemical; design: key to Precipitate rating (Yes/No): Precipitate rating “Yes” means visible precipitate observed at 10× magnification; “No” means no visible precipitate observed at 10× magnification
Description: Materials and methods A water-based formulation was made containing exatecan mesylate at a concentration of 10 mg/mL exatecan mesylate in water (Invitrogen UltraPure Distilled Water #10977-015). Phosphate buffers A and B were made by dissolving either 1M potassium phosphate monobasic (KH2PO4) for buffer A or 1M potassium phosphate dibasic ([…]) for buffer B in distilled water. Solutions with pH values ranging between 4.3 and 9.6 were prepared by mixing buffer A (pH 4.3) with buffer B (pH 9.6) at pre-determined percentages. A pH meter was used to confirm the pH of the resulting phosphate buffer solutions by dipping the electrode into the solution.
To determine the pH solubility of the water-based formulation, 5 μL of the 10 mg/mL EXA in DI water was added to 100 μL 1M phosphate buffer at varying pH levels in a 96-well plate to produce a final concentration of […] EXA per milliliter. The solubility tests were conducted at pH 4.30 (0% buffer B), pH 5.6 (10% buffer B), pH 6.1 (20% buffer B), pH 6.4 (30% buffer B), pH 6.7 (40% buffer B), pH 7.0 (50% buffer B), pH 7.2 (60% buffer B), pH 7.5 (70% buffer B), pH 7.8 (80% buffer B), pH 8.2 (90% buffer B) and pH 9.6 (100% buffer B). Precipitation was assessed and images of the precipitate at the bottom of the 96-well plate were taken after 1 hour.

[7] = mouse, in vivo
Description: as §2, §3

[8] = system: PDVC57 cells (SCC tumors); test: Single intratumoral injection of water-based exatecan mesylate formulation, followed to endpoint tumor volume 1 cm^3 (Example 4); format: in vivo, C57BL/6J mice
Description: In a second experiment, 15 mice with tumors ranging in size from 50-100 mm^3, calculated as described above, were examined.
PDVC57 cells were injected into 6-week-old female C57BL/6J mice. Treatment was administered by a single intratumoral injection seven days after tumor cell inoculation. Intratumoral injection was performed using BD insulin syringe (30-gauge×8 mm needle; #328468). The vehicle was Invitrogen UltraPure Distilled Water #10977-015.
The experimental group received 10 mg/mL exatecan. The treatment volume was 0.02 mL. Ten of the mice were given a single injection of a water-based formulation containing exatecan mesylate while the other 5 mice received a vehicle injection of ultrapure DI water and served as the control group. These mice were observed until the endpoint at which their tumor volume was 1 cm^3. […]

[9] = system: SCC tumors (PDVC57 cells); test: Intratumoral injection of exatecan in PDVC57 SCC tumors (Example 1, Experiments 1 and 2): tumor outcome; format: in vivo, C57BL/6J mice
Description: as §1
Control groups received an equal volume of sterile dH2O.
16 days post-treatment, when the first vehicle control tumors reached 1 cm in one dimension, half (N=5) of each group was harvested for histology: tumors were measured, ranked by volume (V=(½)(W^2×L)), and every-other one harvested (#1, 3, 5, 7, and 9 were harvested and #2, 4, 6, 8, and 10 were not).

[10] = 10 mg/mL, 0.02 mL single injection

Structure (SMILES): CC[C@@]1(O)C(=O)OCc2c1cc1n(c2=O)Cc2c-1nc1cc(F)c(C)c3c1c2[C@@H](N)CC3 [EXA, Exatecan mesylate]
- Mice remaining (day 66 post-treatment), no palpable tumor [1, 10]: 4 - no
- Tumor incidence overall [1, 10]: (20%)
- Tumor incidence overall (mice) [1, 10]: 2 of 10
- Day 32 harvest for histology: tumor in ([1]; 10 mg/mL, 0.02 mL single injection, 4 mice not harvested): 1 of 1. 4
- % of mice that eliminated their tumor ([1]; 10 mg/mL, 0.02 mL single injection, assessed at day 16 and day 66): 80%
- Day 16 harvest for histology: tumor in ([1]; 10 mg/mL, 0.02 mL single intratumoral injection): 1 of 5
- Histological assessment: mice with no discernible tumor ([1]; 5 mice per group): 4 out of 5
- Inflammation of surrounding tissue compared to vehicle-treated mice ([1]; single dose, histology): decreased inflammation
- Tissue damage ([1]; single dose, histology): minimal tissue damage
- Histology (N): mice with tumor [2]: Tumor in 2
- Dissolution in sterile dH2O ([3]; 10 mg/mL stock): warming to 60 °C plus sonication and vortexing were needed
- Dissolution in sterile dH2O ([3]; at 5 mg/mL): dissolves immediately
- Tumor size compared to vehicle ([4]; 2.5 mg/mL, 0.02 mL, 14 days): almost complete reduction in tumor size
- Tumor size compared to vehicle ([4]; 5 mg/mL, 0.02 mL, 14 days): almost complete reduction in tumor size
- Tumor size compared to 1.25 mg/mL and vehicle ([4]; 10 mg/mL, 0.02 mL, 14 days): significantly reduced tumors
- Tumor size compared to vehicle ([4]; all doses administered (10, 5, 2.5, 1.25 mg/mL; 0.02 mL), 14 days post treatment): reduced tumor size
- Reduction of tumor burden (photon flux) (ID8-Luc tumor cells): 62.16%
- Toxicity (summary) ([5]; 0.4 mg per animal): lethality
- Toxicity: number of mice in which lethal ([5]; EXA 0.1 mg x2 (day 0 and day 3), of 9 mice): Lethal in 2 of
- Toxicity: number of mice in which lethal ([5]; EXA 0.4 mg single injection, of 8 mice): Lethal in 7 of
- pH at which enhanced precipitation and decrease in solubility is shown ([6]; 1M phosphate buffer): ≥ 7.12
- Precipitate rating (Yes/No) ([6]; Control (distilled water), 0% buffer A, 0% buffer B, pH 7): No
- Onset of precipitation after addition to phosphate buffer ([6]; EXA/DI water mixture added to phosphate buffer): generally immediate
- Precipitate rating (Yes/No) ([6]; Sample 1: 100% buffer A, 0% buffer B, pH 4.3): No
- Precipitate rating (Yes/No) ([6]; Sample 2: 90% buffer A, 10% buffer B, pH 5.6): No
- Precipitate rating (Yes/No) ([6]; Sample 3: 80% buffer A, 20% buffer B, pH 6.1): No
- Precipitate rating (Yes/No) ([6]; Sample 4: 70% buffer A, 30% buffer B, pH 6.4): No
- Precipitate rating (Yes/No) ([6]; Sample 5: 60% buffer A, 40% buffer B, pH 6.7): Yes
- Precipitate rating (Yes/No) ([6]; Sample 6: 50% buffer A, 50% buffer B, pH 7.0): Yes
- Precipitate rating (Yes/No) ([6]; Sample 7: 40% buffer A, 60% buffer B, pH 7.2): Yes
- Precipitate rating (Yes/No) ([6]; Sample 8: 30% buffer A, 70% buffer B, pH 7.5): Yes
- Precipitate rating (Yes/No) ([6]; Sample 9: 20% buffer A, 80% buffer B, pH 7.8): Yes
- Precipitate rating (Yes/No) ([6]; Sample 10: 10% buffer A, 90% buffer B, pH 8.2): Yes
- Precipitate rating (Yes/No) ([6]; Sample 11: 0% buffer A, 100% buffer B, pH 9.6): Yes
- Tolerability compared with single 0.2 mg dose [7]: less well tolerated
- Mice with tumors that reached endpoint volume (1 cm^3) ([8]; 10 mg/mL, 0.02 mL single injection, through day 77): 4 of 10
- Mantel-Cox log rank test p (survival vs dH2O vehicle) ([8]; 77 days post-treatment, 10 mg/mL, 0.02 mL): < 0.0001
- Cure ([8]; Day 77 post-treatment): 60%
- Mice remaining with no palpable tumor ([8]; Day 77 post-treatment): 6 of the 10
- Mice with a large tumor (clinical images) ([8]; day 22 post-treatment, 10 mg/mL, 0.02 mL): 1 of 10
- Time at which tumors reached endpoint volume ([8]; the 4 mice that reached 1 cm^3): 34-52 days post-treatment
- Mice whose tumor progressed to 1 cm ([9]; 0.2 mg, the five mice not harvested on day 16): one of the remaining five
- Efficacy of treatment (summary) ([9]; 0.2-mg dose per animal): very effective
- Tumor incidence ([9]; EXA 0.1 mg x2): 57%
- Tumor incidence (mice) ([9]; EXA 0.1 mg x2): 4 of 7
- Mice remaining (days post-treatment), no palpable tumor ([9]; EXA 0.1 mg x2, day 36): 2 (day 36) -
- Histology (N): mice with tumor ([9]; EXA 0.1 mg x2, of 5 mice harvested (2 not harvested)): Tumor in 4
- Tumor incidence ([9]; EXA 0.2 mg single injection, N=10): 20%
- Mice remaining (days post-treatment), no palpable tumor ([9]; EXA 0.2 mg single injection, day 53): 4 (day 53) -
- Mice remaining (days post-treatment), no palpable tumor ([9]; EXA 0.2 mg single injection, day 53, listed as exatecan): four
- Mice remaining (days post-treatment), no palpable tumor ([9]; EXA 0.4 mg single injection, day 36): 1 (day 36) -
- Efficacy compared with single 0.2 mg dose ([9]; two doses of 0.1 mg per animal separated by 3 days): less effective
